Assays:
Format in all cases: in vivo
[1] = test system: Italian ryegrass (Lolium multiflorum); assay: Test A postemergence application; details: approx. 10 days
How it was run: (§1)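 Compounds in non-phytotoxic solvent with surfactant applied as directed soil spray preemergence or postemergence to plants 2–10 cm, one- to two-leaf stage, in loam/sand. Injury rated visually versus untreated controls after about 10 days in greenhouse, 0 (no effect) to 100 (complete control).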

[2] = test system: barnyardgrass (Echinochloa crus-galli); assay: Test A postemergence application; details: approx. 10 days
How it was run: as §1

[3] = test system: blackgrass (Alopecurus myosuroides); assay: Test A postemergence application; details: approx. 10 days
How it was run: as §1

corn (Zea mays) = assay: Test A postemergence application; details: approx. 10 days
How it was run: as §1

[4] = test system: galium (catchweed bedstraw, Galium aparine); assay: Test A postemergence application; details: approx. 10 days
How it was run: as §1

[5] = test system: giant foxtail (Setaria faberii); assay: Test A postemergence application; details: approx. 10 days
How it was run: as §1

kochia (Kochia scoparia) = assay: Test A postemergence application; details: approx. 10 days
How it was run: as §1

[6] = test system: pigweed (Amaranthus retroflexus); assay: Test A postemergence application; details: approx. 10 days
How it was run: as §1

[7] = test system: ragweed (common ragweed, Ambrosia elatior); assay: Test A postemergence application; details: approx. 10 days
How it was run: as §1

[8] = test system: wheat (Triticum aestivum); assay: Test A postemergence application; details: approx. 10 days
How it was run: as §1

[9] = test system: barnyardgrass (Echinochloa crus-galli); assay: Test B flooded paddy test; set-up: key: 0 = no effect, 100 = complete control; details: Flood, 250 g ai/ha applied to paddy water at 2-leaf stage; visually evaluated after 13 to 15 days; scale 0 (no effect) to 100 (complete control)
How it was run: (§2)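 2-leaf plants; flood 3 cm over soil; compound into paddy water; depth held. Greenhouse 13–15 d. Visual rating vs controls, 0 (no effect) to 100 (complete control); dash = not tested.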

[10] = test system: ducksalad (Heteranthera limosa); assay: Test B flooded paddy test; set-up: key: 0 = no effect, 100 = complete control; details: Flood, 250 g ai/ha applied to paddy water at 2-leaf stage; visually evaluated after 13 to 15 days; scale 0 (no effect) to 100 (complete control)
How it was run: as §2

[11] = test system: sedge, umbrella (small-flower umbrella sedge, Cyperus difformis); assay: Test B flooded paddy test; set-up: key: 0 = no effect, 100 = complete control; details: Flood, 250 g ai/ha applied to paddy water at 2-leaf stage; visually evaluated after 13 to 15 days; scale 0 (no effect) to 100 (complete control)
How it was run: as §2

[12] = test system: galium (catchweed bedstraw, Galium aparine); assay: Test C postemergence; details: scale 0 to 100, 0 is no effect, 100 is complete control
How it was run: (§3)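 Preemergence: seeds sown in loam–sand blend and sprayed with compound in non-phytotoxic solvent mixture with surfactant. Postemergence: plants in peat-based potting medium treated at 2–18 cm (1- to 4-leaf stage). Greenhouse 13–15 days; visual injury vs untreated controls, 0 (no effect) to 100 (complete control).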

[13] = test system: johnsongrass (Sorghum halepense); assay: Test C postemergence; details: scale 0 to 100, 0 is no effect, 100 is complete control
How it was run: as §3

[14] = test system: lambsquarters (Chenopodium album); assay: Test C postemergence; details: scale 0 to 100, 0 is no effect, 100 is complete control
How it was run: as §3

[15] = test system: large (Lg) crabgrass (Digitaria sanguinalis); assay: Test C postemergence; details: scale 0 to 100, 0 is no effect, 100 is complete control
How it was run: as §3

[16] = test system: ragweed (common ragweed, Ambrosia elatior); assay: Test C postemergence; details: scale 0 to 100, 0 is no effect, 100 is complete control
How it was run: as §3

soybean (Glycine max) = assay: Test C postemergence; details: scale 0 to 100, 0 is no effect, 100 is complete control
How it was run: as §3

Compound: O=c1cccc(Oc2ncc(Cl)cn2)n1-c1ccc(C(F)(F)F)cn1 [Compound 7]
- Plant response rating (0 to 100 scale, 0 no effect, 100 complete control), Ryegrass, Italian ([1]; 31 g ai/ha): 0
- Plant response rating (0 to 100 scale, 0 no effect, 100 complete control), Ryegrass, Italian ([1]; 125 g ai/ha): 20
- Plant response rating (0 to 100 scale, 0 no effect, 100 complete control), Barnyardgrass ([2]; 31 g ai/ha): 20
- Plant response rating (0 to 100 scale, 0 no effect, 100 complete control), Barnyardgrass ([2]; 125 g ai/ha): 50
- Plant response rating (0 to 100 scale, 0 no effect, 100 complete control), Blackgrass ([3]; 31 g ai/ha): 10
- Plant response rating (0 to 100 scale, 0 no effect, 100 complete control), Blackgrass ([3]; 125 g ai/ha): 30
- Plant response rating (0 to 100 scale, 0 no effect, 100 complete control), Corn (corn (Zea mays); 31 g ai/ha): 10
- Plant response rating (0 to 100 scale, 0 no effect, 100 complete control), Corn (corn (Zea mays); 125 g ai/ha): 20
- Plant response rating (0 to 100 scale, 0 no effect, 100 complete control), Galium ([4]; 31 g ai/ha): 50
- Plant response rating (0 to 100 scale, 0 no effect, 100 complete control), Galium ([4]; 125 g ai/ha): 90
- Plant response rating (0 to 100 scale, 0 no effect, 100 complete control), Foxtail, Giant ([5]; 31 g ai/ha): 20
- Plant response rating (0 to 100 scale, 0 no effect, 100 complete control), Foxtail, Giant ([5]; 125 g ai/ha): 50
- Plant response rating (0 to 100 scale, 0 no effect, 100 complete control), Kochia (kochia (Kochia scoparia); 31 g ai/ha): 80
- Plant response rating (0 to 100 scale, 0 no effect, 100 complete control), Kochia (kochia (Kochia scoparia); 125 g ai/ha): 90
- Plant response rating (0 to 100 scale, 0 no effect, 100 complete control), Pigweed ([6]; 31 g ai/ha): 70
- Plant response rating (0 to 100 scale, 0 no effect, 100 complete control), Pigweed ([6]; 125 g ai/ha): 90
- Plant response rating (0 to 100 scale, 0 no effect, 100 complete control), Ragweed ([7]; 31 g ai/ha): 30
- Plant response rating (0 to 100 scale, 0 no effect, 100 complete control), Ragweed ([7]; 125 g ai/ha): 60
- Plant response rating (0 to 100 scale, 0 no effect, 100 complete control), Wheat ([8]; 31 g ai/ha): 0
- Plant response rating (0 to 100 scale, 0 no effect, 100 complete control), Wheat ([8]; 125 g ai/ha): 20
- Plant response rating, Barnyardgrass [9]: 0
- Plant response rating, Ducksalad [10]: 100
- Plant response rating, Sedge, Umbrella [11]: 90
- Plant response rating, Galium ([12]; 16 g ai/ha): 45
- Plant response rating, Galium ([12]; 31 g ai/ha): 50
- Plant response rating, Galium ([12]; 62 g ai/ha): 60
- Plant response rating, Galium ([12]; 125 g ai/ha): 75
- Plant response rating, Johnsongrass ([13]; 16 g ai/ha): 5
- Plant response rating, Johnsongrass ([13]; 31 g ai/ha): 5
- Plant response rating, Johnsongrass ([13]; 62 g ai/ha): 10
- Plant response rating, Johnsongrass ([13]; 125 g ai/ha): 10
- Plant response rating, Lambsquarters ([14]; 16 g ai/ha): 25
- Plant response rating, Lambsquarters ([14]; 31 g ai/ha): 65
- Plant response rating, Lambsquarters ([14]; 62 g ai/ha): 65
- Plant response rating, Lambsquarters ([14]; 125 g ai/ha): 75
- Plant response rating, Crabgrass, Large ([15]; 16 g ai/ha): 10
- Plant response rating, Crabgrass, Large ([15]; 31 g ai/ha): 10
- Plant response rating, Crabgrass, Large ([15]; 62 g ai/ha): 15
- Plant response rating, Crabgrass, Large ([15]; 125 g ai/ha): 15
- Plant response rating, Ragweed ([16]; 16 g ai/ha): 25
- Plant response rating, Ragweed ([16]; 31 g ai/ha): 30
- Plant response rating, Ragweed ([16]; 62 g ai/ha): 35
- Plant response rating, Ragweed ([16]; 125 g ai/ha): 55
- Plant response rating, Soybean (soybean (Glycine max); 16 g ai/ha): 50
- Plant response rating, Soybean (soybean (Glycine max); 31 g ai/ha): 40
- Plant response rating, Soybean (soybean (Glycine max); 62 g ai/ha): 50
- Plant response rating, Soybean (soybean (Glycine max); 125 g ai/ha): 55

Compound: O=c1cccc(Oc2ncc(Cl)cn2)n1-c1ccc(C(F)(F)F)cc1 [Compound 10]
- Plant response rating (0 to 100 scale, 0 no effect, 100 complete control), Ryegrass, Italian ([1]; 31 g ai/ha): 0
- Plant response rating (0 to 100 scale, 0 no effect, 100 complete control), Ryegrass, Italian ([1]; 125 g ai/ha): 60
- Plant response rating (0 to 100 scale, 0 no effect, 100 complete control), Barnyardgrass ([2]; 31 g ai/ha): 40
- Plant response rating (0 to 100 scale, 0 no effect, 100 complete control), Barnyardgrass ([2]; 125 g ai/ha): 90
- Plant response rating (0 to 100 scale, 0 no effect, 100 complete control), Blackgrass ([3]; 31 g ai/ha): 30
- Plant response rating (0 to 100 scale, 0 no effect, 100 complete control), Blackgrass ([3]; 125 g ai/ha): 50
- Plant response rating (0 to 100 scale, 0 no effect, 100 complete control), Corn (corn (Zea mays); 31 g ai/ha): 20
- Plant response rating (0 to 100 scale, 0 no effect, 100 complete control), Corn (corn (Zea mays); 125 g ai/ha): 30
- Plant response rating (0 to 100 scale, 0 no effect, 100 complete control), Galium ([4]; 31 g ai/ha): 30
- Plant response rating (0 to 100 scale, 0 no effect, 100 complete control), Galium ([4]; 125 g ai/ha): 80
- Plant response rating (0 to 100 scale, 0 no effect, 100 complete control), Foxtail, Giant ([5]; 31 g ai/ha): 50
- Plant response rating (0 to 100 scale, 0 no effect, 100 complete control), Foxtail, Giant ([5]; 125 g ai/ha): 90
- Plant response rating (0 to 100 scale, 0 no effect, 100 complete control), Kochia (kochia (Kochia scoparia); 31 g ai/ha): 80
- Plant response rating (0 to 100 scale, 0 no effect, 100 complete control), Kochia (kochia (Kochia scoparia); 125 g ai/ha): 90
- Plant response rating (0 to 100 scale, 0 no effect, 100 complete control), Pigweed ([6]; 31 g ai/ha): 70
- Plant response rating (0 to 100 scale, 0 no effect, 100 complete control), Pigweed ([6]; 125 g ai/ha): 90
- Plant response rating (0 to 100 scale, 0 no effect, 100 complete control), Ragweed ([7]; 31 g ai/ha): 10
- Plant response rating (0 to 100 scale, 0 no effect, 100 complete control), Ragweed ([7]; 125 g ai/ha): 20
- Plant response rating (0 to 100 scale, 0 no effect, 100 complete control), Wheat ([8]; 31 g ai/ha): 0
- Plant response rating (0 to 100 scale, 0 no effect, 100 complete control), Wheat ([8]; 125 g ai/ha): 10
- Plant response rating, Barnyardgrass [9]: 30
- Plant response rating, Ducksalad [10]: 65
- Plant response rating, Sedge, Umbrella [11]: 90
- Plant response rating, Galium ([12]; 16 g ai/ha): 45
- Plant response rating, Galium ([12]; 31 g ai/ha): 50
- Plant response rating, Galium ([12]; 62 g ai/ha): 75
- Plant response rating, Galium ([12]; 125 g ai/ha): 80
- Plant response rating, Johnsongrass ([13]; 16 g ai/ha): 5
- Plant response rating, Johnsongrass ([13]; 31 g ai/ha): 10
- Plant response rating, Johnsongrass ([13]; 62 g ai/ha): 10
- Plant response rating, Johnsongrass ([13]; 125 g ai/ha): 25
- Plant response rating, Lambsquarters ([14]; 16 g ai/ha): 65
- Plant response rating, Lambsquarters ([14]; 31 g ai/ha): 75
- Plant response rating, Lambsquarters ([14]; 62 g ai/ha): 75
- Plant response rating, Lambsquarters ([14]; 125 g ai/ha): 90
- Plant response rating, Crabgrass, Large ([15]; 16 g ai/ha): 25
- Plant response rating, Crabgrass, Large ([15]; 31 g ai/ha): 35
- Plant response rating, Crabgrass, Large ([15]; 62 g ai/ha): 60
- Plant response rating, Crabgrass, Large ([15]; 125 g ai/ha): 80
- Plant response rating, Ragweed ([16]; 16 g ai/ha): 25
- Plant response rating, Ragweed ([16]; 31 g ai/ha): 25
- Plant response rating, Ragweed ([16]; 62 g ai/ha): 60
- Plant response rating, Ragweed ([16]; 125 g ai/ha): 65
- Plant response rating, Soybean (soybean (Glycine max); 16 g ai/ha): 40
- Plant response rating, Soybean (soybean (Glycine max); 31 g ai/ha): 40
- Plant response rating, Soybean (soybean (Glycine max); 62 g ai/ha): 65
- Plant response rating, Soybean (soybean (Glycine max); 125 g ai/ha): 55

— patent US9963442B2, “Pyridones as herbicides” (E I DU PONT DE NEMOURS AND COMPANY, priority 2014, dated 2018)
